The test system of assay [1] is Plasmodium falciparum FZ strain resistant to chloroquine. Put plainly: Anti-paludal activity in vitro: inhibition of proliferation in continuous culture, FZ strain. The format is cell-based. The conditions noted are these: R3 type resistance, parasitemia relative to controls, incubation 48 hours, RPS 10 medium, 5% CO2, read-out: ED50 (FZ strain resistant to chloroquine). As for the experimental part: (§1) 2) Test for determining the anti-paludal activity in vitro
(§2) The culturing of Plasmodium falciparum "in vitro" was carried out in cupulas on polystyrene plates used for tissue culture. It was carried out at 37° C. in a CO2 oven by the technique of TRAGER et al (1976-1978) on a modified RPMI 1640 medium (AZOULAY et al 1983) buffered with a mixture of HEPES buffer (40 m.moles/l), glucose (4 g/l) and 10 percent human serum. The anti-malarial activity "in vitro" of the different products tested was studied on two different strains of Plasmodium falciparum, namely an FCC2 strain sensitive to chloroquine and an FZ strain resistant to chloroquine (R3 type resistance). […]
(§3) 0.7 ml of the globular suspension was deposited in each cupula and each concentration of chosen product was tested on 3 cupulas. […] After an incubation time of 48 hours without renewing the medium in a steam chest with a CO2 content of 5%, the parasitemia content of each cupula was evaluated.
(§4) To do this, the canisters were removed from the steam chest and were left for 10 minutes at rest under a hood with laminar flux. […] On these crush preparations, fixed and colored, the different forms of the parasite were counted for 2000 to 3000 red blood corpuscles per plate. The results were expressed as the percentage of proliferation relative to the controls. […]

The subject of assay [2] is Plasmodium falciparum FCC2 strain sensitive to chloroquine. The experiment in a line: Anti-paludal activity in vitro: inhibition of proliferation in continuous culture, FCC2 strain. In kind it is cell-based. The conditions noted are these: parasitemia relative to controls, incubation 48 hours, RPS 10 medium, 5% CO2, read-out: ED50 (FCC2 strain sensitive to chloroquine). As to the method:
as §1, §2, §3, §4

Counter-ions that a name gives are not always drawn.

Consider `Clc1ccc2c(N3CCC[C@@H]4CCC[C@@H](N5CCCC5)[C@@H]43)ccnc2c1` (relative stereo) [Example 2, (4a α, 8α, 8aα) (±) 1-(7-chloro-4-quinolinyl)-decahydro-8-(1-pyrrolidinyl)-quinoline dihydrochloride], for which the IC50 in assay [1] is 0.34 µg/mL; in assay [2], 0.35 µg/mL.
